# Data as given in publication PMC10141580, “Cyclic Dichalcogenides Extend the Reach of Bioreductive Prodrugs to Harness Thiol/Disulfide Oxidoreductases: Applications to seco-Duocarmycins Targeting the Thioredoxin System” (ACS Central Science, 2023).
# Like-named read-outs stand apart in the source and are kept apart here.
# Test system: NCI-60 standardized human tumor cell line panel
# Experiment: cells
# Format: cell-based
# Details: for GI50: Homo sapiens
smiles,measurement,setting,value
COc1cc2cc(C(=O)N3C[C@@H](CCl)c4c3cc(OC(=O)N3CCN(C(=O)CCC(=O)N5CCN(C)CC5)[C@H]5CSSC[C@H]53)c3ccccc43)[nH]c2c(OC)c1OC [P-SS66C-CBI-TMI],GI50,"PC-3, PC-3, read-out: GI50",0.48 µM
same,GI50,"RPMI-8226, RPMI-8226, read-out: GI50",0.14 µM
same,GI50,"RPMI-8226, cell line RPMI-8226 (LE:RPMI-8226), TMI sheet, read-out: NCI-60 screening: Log(GI50) (converted)",0.141 µM
same,GI50,"RPMI-8226, cell line RPMI-8226 (LE:RPMI-8226), TMI sheet, read-out: NCI-60 screening: Raw GI50",0.14 µM
same,GI50,"RXF 393, RXF 393 (RE) cell line, log10 of GI50 in M, read-out: NCI-60 screening: Log(GI50) (converted)",0.0347 µM
same,GI50,"RXF 393, RXF 393, read-out: GI50",0.035 µM
same,GI50,"SF-268, SF-268, read-out: GI50",0.058 µM
same,GI50,"SF-268, cell line SF-268 (CNS:SF-268), TMI sheet, read-out: NCI-60 screening: Log(GI50) (converted)",0.0589 µM
same,GI50,"SF-295, SF-295, read-out: GI50",0.11 µM
same,GI50,"SF-295, cell line SF-295 (CNS:SF-295), TMI sheet, read-out: NCI-60 screening: Log(GI50) (converted)",0.112 µM
same,GI50,"SF-295, cell line SF-295 (CNS:SF-295), TMI sheet, read-out: NCI-60 screening: Raw GI50",0.11 µM
same,GI50,"SF-539, SF-539, read-out: GI50",0.039 µM
same,GI50,"SK-MEL-5, SK-MEL-5, read-out: GI50",0.11 µM
same,GI50,"SK-MEL-5, cell line SK-MEL-5 (ME:SK-MEL-5), TMI sheet, read-out: NCI-60 screening: Log(GI50) (converted)",0.112 µM
same,GI50,"SK-MEL-5, cell line SK-MEL-5 (ME:SK-MEL-5), TMI sheet, read-out: NCI-60 screening: Raw GI50",0.11 µM
same,GI50,"SK-MEL-28, SK-MEL-28, read-out: GI50",0.16 µM
same,GI50,"SK-MEL-28, cell line SK-MEL-28 (ME:SK-MEL-28), TMI sheet, read-out: NCI-60 screening: Log(GI50) (converted)",0.158 µM
same,GI50,"SK-OV-3, SK-OV-3 (OV) cell line, log10 of GI50 in M, read-out: NCI-60 screening: Log(GI50) (converted)",0.0724 µM
same,GI50,"SK-OV-3, SK-OV-3, read-out: GI50",0.072 µM
same,GI50,"SN12C, SN12C (RE) cell line, log10 of GI50 in M, read-out: NCI-60 screening: Log(GI50) (converted)",0.0447 µM
same,GI50,"SN12C, read-out: GI50",0.045 µM
same,GI50,"SNB-19, SNB-19, read-out: GI50",0.091 µM
same,GI50,"SNB-19, cell line SNB-19 (CNS:SNB-19), TMI sheet, read-out: NCI-60 screening: Log(GI50) (converted)",0.0912 µM
same,GI50,"SR, read-out: GI50",0.019 µM
same,GI50,"SW-620, SW-620, read-out: GI50",0.13 µM
same,GI50,"SW-620, cell line SW-620 (CO:SW-620), TMI sheet, read-out: NCI-60 screening: Log(GI50) (converted)",0.132 µM
same,GI50,"SW-620, cell line SW-620 (CO:SW-620), TMI sheet, read-out: NCI-60 screening: Raw GI50",0.13 µM
same,GI50,"T47D, T-47D, read-out: GI50",0.23 µM
same,GI50,"T47D, cell line T-47D (BR:T-47D), TMI sheet, read-out: NCI-60 screening: Log(GI50) (converted)",0.229 µM
same,GI50,"TK-10, TK-10 (RE) cell line, log10 of GI50 in M, read-out: NCI-60 screening: Log(GI50) (converted)",1.05 µM
same,GI50,"TK-10, TK-10, read-out: GI50",1 µM
same,GI50,"U-251, U251, read-out: GI50",0.081 µM
same,GI50,"U-251, cell line U251 (CNS:U251), TMI sheet, read-out: NCI-60 screening: Log(GI50) (converted)",0.0813 µM
same,GI50,"UACC-62, UACC-62, read-out: GI50",0.14 µM
same,GI50,"UACC-62, cell line UACC-62 (ME:UACC-62), TMI sheet, read-out: NCI-60 screening: Log(GI50) (converted)",0.135 µM
same,GI50,"UACC-62, cell line UACC-62 (ME:UACC-62), TMI sheet, read-out: NCI-60 screening: Raw GI50",0.14 µM
same,GI50,"UACC-257, UACC-257, read-out: GI50",0.27 µM
same,GI50,"UACC-257, cell line UACC-257 (ME:UACC-257), TMI sheet, read-out: NCI-60 screening: Log(GI50) (converted)",0.275 µM
same,GI50,"UACC-257, cell line UACC-257 (ME:UACC-257), TMI sheet, read-out: NCI-60 screening: Raw GI50",0.27 µM
same,GI50,"cell line M14 (ME:M14), TMI sheet, read-out: NCI-60 screening: Log(GI50) (converted)",0.123 µM
same,GI50,"cell line SF-539 (CNS:SF-539), TMI sheet, read-out: NCI-60 screening: Log(GI50) (converted)",0.0389 µM
same,GI50,"cell line SR (LE:SR), TMI sheet, read-out: NCI-60 screening: Log(GI50) (converted)",0.0195 µM
same,GI50,"cell line SR (LE:SR), TMI sheet, read-out: NCI-60 screening: Raw GI50",0.019 µM
same,NCI-60 screening: Log(RedIndex),"IGROV1 (OV) cell line, log10 reductive index vs P-CC60",1.07
same,"GI50/IC50, mean","NCI-60 vs ProliFiler, 19 overlapping cell lines",3.5
same,NCI-60 screening: Log(RedIndex),"NCI-H460 (LC) cell line, log10 reductive index vs P-CC60",1.36
same,NCI-60 screening: Log(RedIndex),"NCI-H522 (LC) cell line, log10 reductive index vs P-CC60",1.49
same,NCI-60 screening: Log(RedIndex),"OVCAR-3 (OV) cell line, log10 reductive index vs P-CC60",1.16
same,NCI-60 screening: Log(RedIndex),"OVCAR-4 (OV) cell line, log10 reductive index vs P-CC60",1.08
same,NCI-60 screening: Log(RedIndex),"OVCAR-5 (OV) cell line, log10 reductive index vs P-CC60",1.3
same,NCI-60 screening: Log(RedIndex),"OVCAR-8 (OV) cell line, log10 reductive index vs P-CC60",1.26
same,NCI-60 screening: Log(RedIndex),"PC-3 (PR) cell line, log10 reductive index vs P-CC60",0.82
same,NCI-60 screening: Log(RedIndex),"RXF 393 (RE) cell line, log10 reductive index vs P-CC60",1.48
same,NCI-60 screening: Log(RedIndex),"SK-OV-3 (OV) cell line, log10 reductive index vs P-CC60",1.47
same,NCI-60 screening: Log(RedIndex),"SN12C (RE) cell line, log10 reductive index vs P-CC60",1.43
same,NCI-60 screening: Log(RedIndex),"TK-10 (RE) cell line, log10 reductive index vs P-CC60",0.43
same,NCI-60 screening: Log(RedIndex),"cell line A549/ATCC (LC:A549/ATCC), TMI sheet",1.35
same,NCI-60 screening: Log(RedIndex),"cell line BT-549 (BR:BT-549), TMI sheet",1.04
same,NCI-60 screening: Log(RedIndex),"cell line CCRF-CEM (LE:CCRF-CEM), TMI sheet",0.57
same,NCI-60 screening: Log(RedIndex),"cell line COLO 205 (CO:COLO 205), TMI sheet",0.98
same,NCI-60 screening: Log(RedIndex),"cell line EKVX (LC:EKVX), TMI sheet",0.97
same,NCI-60 screening: Log(RedIndex),"cell line HCC-2998 (CO:HCC-2998), TMI sheet",1.45
same,NCI-60 screening: Log(RedIndex),"cell line HCT-15 (CO:HCT-15), TMI sheet",0.85
same,NCI-60 screening: Log(RedIndex),"cell line HCT-116 (CO:HCT-116), TMI sheet",0.99
same,NCI-60 screening: Log(RedIndex),"cell line HL-60(TB) (LE:HL-60(TB)), TMI sheet",1.19
same,NCI-60 screening: Log(RedIndex),"cell line HOP-62 (LC:HOP-62), TMI sheet",1.16
same,NCI-60 screening: Log(RedIndex),"cell line HOP-92 (LC:HOP-92), TMI sheet",1.15
same,NCI-60 screening: Log(RedIndex),"cell line HT29 (CO:HT29), TMI sheet",1.03
same,NCI-60 screening: Log(RedIndex),"cell line K-562 (LE:K-562), TMI sheet",0.88
same,NCI-60 screening: Log(RedIndex),"cell line KM12 (CO:KM12), TMI sheet",1.2
same,NCI-60 screening: Log(RedIndex),"cell line LOX IMVI (ME:LOX IMVI), TMI sheet",1.2
same,NCI-60 screening: Log(RedIndex),"cell line M14 (ME:M14), TMI sheet",1.09
same,NCI-60 screening: Log(RedIndex),"cell line MALME-3M (ME:MALME-3M), TMI sheet",1.07
same,NCI-60 screening: Log(RedIndex),"cell line MCF7 (BR:MCF7), TMI sheet",1.33
same,NCI-60 screening: Log(RedIndex),"cell line MDA-MB-435 (ME:MDA-MB-435), TMI sheet",1.08
same,NCI-60 screening: Log(RedIndex),"cell line MOLT-4 (LE:MOLT-4), TMI sheet",0.98
same,NCI-60 screening: Log(RedIndex),"cell line NCI-H23 (LC:NCI-H23), TMI sheet",1.4
same,NCI-60 screening: Log(RedIndex),"cell line NCI-H226 (LC:NCI-H226), TMI sheet",0.77
same,NCI-60 screening: Log(RedIndex),"cell line RPMI-8226 (LE:RPMI-8226), TMI sheet",1.02
same,NCI-60 screening: Log(RedIndex),"cell line SF-268 (CNS:SF-268), TMI sheet",1.42
same,NCI-60 screening: Log(RedIndex),"cell line SF-295 (CNS:SF-295), TMI sheet",1.15
same,NCI-60 screening: Log(RedIndex),"cell line SF-539 (CNS:SF-539), TMI sheet",1.53
same,NCI-60 screening: Log(RedIndex),"cell line SK-MEL-5 (ME:SK-MEL-5), TMI sheet",1.17
same,NCI-60 screening: Log(RedIndex),"cell line SK-MEL-28 (ME:SK-MEL-28), TMI sheet",1.35
same,NCI-60 screening: Log(RedIndex),"cell line SNB-19 (CNS:SNB-19), TMI sheet",1.39
same,NCI-60 screening: Log(RedIndex),"cell line SR (LE:SR), TMI sheet",1.15
same,NCI-60 screening: Log(RedIndex),"cell line SW-620 (CO:SW-620), TMI sheet",1.15
same,NCI-60 screening: Log(RedIndex),"cell line T-47D (BR:T-47D), TMI sheet",0.92
same,NCI-60 screening: Log(RedIndex),"cell line U251 (CNS:U251), TMI sheet",1.27
same,NCI-60 screening: Log(RedIndex),"cell line UACC-62 (ME:UACC-62), TMI sheet",1.05
same,NCI-60 screening: Log(RedIndex),"cell line UACC-257 (ME:UACC-257), TMI sheet",0.86
same,mean reductive index,"mean over NCI cell lines, vs P-CC60",14
same,reductive index,"span over NCI cell lines, vs P-CC60",≤ 30
